# Laboratory results as given in patent US8372831B2, “Isoxazoline linked pyrrolo[2,1-c][1,4]benzodiazepine hybrids as potential anticancer agents and the process for preparation thereof” (Council of Scientific & Industrial Research, priority 2008, dated 2013).
# Tests used:
# UACC-257 = experiment: NCI SRB cytotoxicity, UACC-257 (melanoma); type: cell-based, human; details: 48 hrs exposure
# Experimental: (§1) Biological Activity: The in vitro biological activity studies were carried out at the National Cancer Institute, Maryland, USA.
# (§2) The C8-linked isoxazoline-PBD hybrids have been tested against sixty human tumour cell lines derived from nine cancer types (leukemia, non-small cell lung cancer, colon cancer, CNS cancer, melanoma, ovarian cancer, renal cancer, prostate cancer and breast cancer) as per NCI protocol. For each compound, dose response curves for individual cell lines have been measured at a minimum of five concentrations at 10 fold dilutions. A protocol of 48 hrs continuous drug exposure has been used, and a sulforhodamine B (SRB) protein assay was used to estimate cell viability or growth. The concentration for 50% cell growth inhibition (GI50), total cell growth inhibition (TGI, 0% growth) and 50% cell death (LC50, […]) compared with the control has been calculated (FIG. 2).
# (§3) Compound 5b and 9b have been evaluated for in vitro cytotoxicity in sixty cell lines from nine human cancer types of lung (Hop-62, NCI-H226, NCI-H522), leukemia (K-562, SR), colon (HCT-116, HCT-15, HCC-2998), CNS(SF-539), melanoma (SK-MEL-5, UACC-62, M14), ovarian (IGROV1), renal (A498), prostate (PC3) breast (BT-549, MDA-MB-435, HS578T) origin. The results are expressed as percent of cell growth determined relative to that of untreated control cells (Table 1).
# SNB-19 = experiment: NCI SRB cytotoxicity, SNB-19 (CNS); type: cell-based, human; details: 48 hrs exposure
# Experimental: as §1, §2, §3
# COLO 205 = experiment: NCI SRB cytotoxicity, COLO 205 (colon); type: cell-based, human; details: 48 hrs exposure
# Experimental: as §1, §2, §3
# MDA-MB-435 = experiment: NCI SRB cytotoxicity, MDA-MB-435 (breast); type: cell-based, human
# Experimental: as §1, §2, §3
# HCT-116 = experiment: NCI SRB cytotoxicity, HCT-116 (colon); type: cell-based, human
# Experimental: as §1, §2, §3
# SF-268 = experiment: NCI SRB cytotoxicity, SF-268 (CNS); type: cell-based, human; details: 48 hrs exposure
# Experimental: as §1, §2, §3
# Renal = experiment: NCI SRB cytotoxicity, renal cancer panel; type: cell-based, human; details: average of six to eight different cancer cell lines; for Log10 LC50: 50% lethality
# Experimental: as §1, §2, §3
# MDA-MB- = experiment: NCI SRB cytotoxicity, MDA-MB- (breast); type: cell-based, human; details: 48 hrs exposure
# Experimental: as §1, §2, §3
# DU-145 = experiment: NCI SRB cytotoxicity, DU-145 (prostate); type: cell-based, human; details: 48 hrs exposure
# Experimental: as §1, §2, §3
# Leukemia = experiment: NCI SRB cytotoxicity, leukemia panel; type: cell-based, human; details: average of six to eight different cancer cell lines; for Log10 LC50: 50% lethality
# Experimental: as §1, §2, §3
# HT29 = experiment: NCI SRB cytotoxicity, HT29 (colon); type: cell-based, human; details: 48 hrs exposure
# Experimental: as §1, §2, §3
# HL-60(TB) = experiment: NCI SRB cytotoxicity, HL-60(TB) (leukemia); type: cell-based, human; details: 48 hrs exposure
# Experimental: as §1, §2, §3
# RXF 393 = experiment: NCI SRB cytotoxicity, RXF 393 (renal); type: cell-based, human; details: 48 hrs exposure
# Experimental: as §1, §2, §3
# MOLT-4 = experiment: NCI SRB cytotoxicity, MOLT-4 (leukemia); type: cell-based, human; details: 48 hrs exposure
# Experimental: as §1, §2, §3
# OVCAR-8 = experiment: NCI SRB cytotoxicity, OVCAR-8 (ovarian); type: cell-based, human; details: 48 hrs exposure
# Experimental: as §1, §2, §3
# ACHN = experiment: NCI SRB cytotoxicity, ACHN (renal); type: cell-based, human; details: 48 hrs exposure
# Experimental: as §1, §2, §3
# EKVX = experiment: NCI SRB cytotoxicity, EKVX (non-small cell lung); type: cell-based, human; details: Non-smallcell lung, 48 hrs exposure
# Experimental: as §1, §2, §3
# [1] = system: duplex-form calf thymus DNA (CT-DNA); experiment: Thermal denaturation studies with calf thymus DNA; type: binding; details: [PBD]:[DNA] molar ratio 1:5, CT-DNA 100 μM, ligand 20 μM, pH 7.00
# Experimental: Compounds have been subjected to thermal denaturation studies with duplex-form calf thymus DNA (CT-DNA) using a modification of a reported procedure. Working solutions in aqueous buffer (10 mM NaH2PO4/Na2HPO4, 1 mM Na2EDTA, pH 7.00+0.01) containing CT-DNA (100 (μm in phosphate) and the PBD (20(μm) have been prepared by addition of concentrated PBD solutions in DMSO to obtain a fixed [PBD]/[DNA] molar ratio of 1:5. The DNA-PBD solutions have been incubated at 37° C. for 0 and 18 hrs prior to analysis. Samples have been monitored at 260 nm using a Beckman DU-800 spectrophotometer fitted with high performance temperature controller, and heated at 1° C. min^−1 in the 40-110° C. range. DNA helix→coil transition temperatures (Tm) have been obtained from the maxima in the d(A260)/d T derivative plots. Drug-induced alterations in DNA melting behavior are given by: ΔTm=Tm(DNA+PBD)−Tm(DNA alone), where the Tm value for the PBD-free CT-DNA is 68.5±0.01.
# The DNA-binding for these novel C8-linked isoxazoline-PBD hybrids has been examined by thermal denaturation studies using calf thymus CT-DNA. […] Data for 5a-c, 9b and 9g and DC-81 are included in Table 4 for comparison.
# OVCAR-4 = experiment: NCI SRB cytotoxicity, OVCAR-4 (ovarian); type: cell-based, human; details: 48 hrs exposure
# Experimental: as §1, §2, §3
# SW-620 = experiment: NCI SRB cytotoxicity, SW-620 (colon); type: cell-based, human; details: 48 hrs exposure
# Experimental: as §1, §2, §3
# SK-MEL-28 = experiment: NCI SRB cytotoxicity, SK-MEL-28 (melanoma); type: cell-based, human; details: 48 hrs exposure
# Experimental: as §1, §2, §3
# SN12C = experiment: NCI SRB cytotoxicity, SN12C (renal); type: cell-based, human; details: 48 hrs exposure
# Experimental: as §1, §2, §3
# Ovarian = experiment: NCI SRB cytotoxicity, ovarian cancer panel; type: cell-based, human; details: average of six to eight different cancer cell lines; for Log10 LC50: 50% lethality
# Experimental: as §1, §2, §3
# KM12 = experiment: NCI SRB cytotoxicity, KM12 (colon); type: cell-based, human; details: 48 hrs exposure
# Experimental: as §1, §2, §3
# OVCAR-5 = experiment: NCI SRB cytotoxicity, OVCAR-5 (ovarian); type: cell-based, human; details: 48 hrs exposure
# Experimental: as §1, §2, §3
# BT-549 = experiment: NCI SRB cytotoxicity, BT-549 (breast); type: cell-based, human
# Experimental: as §1, §2, §3
# SK-MEL-5 = experiment: NCI SRB cytotoxicity, SK-MEL-5 (melanoma); type: cell-based, human
# Experimental: as §1, §2, §3
# CNS = experiment: NCI SRB cytotoxicity, CNS cancer panel; type: cell-based, human; details: average of six to eight different cancer cell lines; for Log10 LC50: 50% lethality
# Experimental: as §1, §2, §3
# SK-MEL-2 = experiment: NCI SRB cytotoxicity, SK-MEL-2 (melanoma); type: cell-based, human; details: 48 hrs exposure
# Experimental: as §1, §2, §3
# 786-0 = experiment: NCI SRB cytotoxicity, 786-0 (renal); type: cell-based, human; details: 48 hrs exposure
# Experimental: as §1, §2, §3
# [2] = MDA-MB-435, Breast, 48 hrs exposure
# [3] = HCT-116, Colon, 48 hrs exposure
# [4] = BT-549, Breast, 48 hrs exposure
# [5] = SK-MEL-5, Melanoma, 48 hrs exposure
SMILES,GI50 (UACC-257) [nM],GI50 (SNB-19) [nM],GI50 (COLO 205) [nM],GI50 (MDA-MB-435; [2]) [nM],GI50 (HCT-116; [3]) [nM],GI50 (SF-268) [nM],Log10 LC50 (Renal) [mol/L],Log10GI50 (Renal) [mol/L],GI50 (MDA-MB-) [nM],GI50 (DU-145) [nM],Log10 LC50 (Leukemia) [mol/L],Log10GI50 (Leukemia) [mol/L],GI50 (HT29) [nM],GI50 (HL-60(TB)) [nM],GI50 (RXF 393) [nM],GI50 (MOLT-4) [nM],GI50 (OVCAR-8) [nM],GI50 (ACHN) [nM],GI50 (EKVX) [nM],ΔTm after incubation at 37° C. for 0 hrs [1] [°C],other results
"COc1ccc(C2CC(c3ccc(OC)c(OC)c3OC)=NO2)cc1OCCCCOc1cc2c(cc1OC)C(=O)N1CCC[C@H]1C=N2 (stereo partly drawn) [Compound 9b, (11aS)-7-(methyloxy)-8-(4-[(2-(methyloxy)-5-3-[2,3,4-tri(methyloxy)phenyl]-4,5-dihydro-5-isoxazolylphenyl)oxy]butyloxy)-2,3,5,11a-tetrahydro-1H-benzo[e]pyrrolo[1,2-a][1,4]diazepin-5-one]",2330,1960,1960,3540,1700,1890,−4.77,−5.62,1150,2480,−4.37,−5.83,2750,1900,1390,1850,2550,2410,3680,1.2,ΔTm after incubation at 37° C. for 18 hrs [1]: 2.3 °C; GI50 (OVCAR-4): 2070 nM; GI50 (SW-620): 1550 nM; GI50 (SK-MEL-28): 2070 nM; GI50 (SN12C): 1580 nM; Log10 LC50 (Ovarian): −4.48 mol/L; Log10GI50 (Ovarian): −5.61 mol/L; GI50 (KM12): 1740 nM; GI50 (OVCAR-5): 3130 nM; GI50 (BT-549; [4]): 1230 nM; GI50 (SK-MEL-5; [5]): 1470 nM; Log10 LC50 (CNS): −5.05 mol/L; Log10GI50 (CNS): −5.74 mol/L; GI50 (SK-MEL-2): 2030 nM; GI50 (786-0): 1570 nM
"COc1cc(C2=NOC(c3cc(OC)c(OC)c(OC)c3)C2)ccc1OCCCCOc1cc2c(cc1OC)C(=O)N1CCC[C@H]1C=N2 (stereo partly drawn) [Compound 5b, (11aS)-7-(methyloxy)-8-(4-[(2-(methyloxy)-4-5-[3,4,5-tri(methyloxy)phenyl]-4,5-dihydro-3-isoxazolylphenyl)oxy]butyloxy)-2,3,5,11a-tetrahydro-1H benzo[e]pyrrolo[1,2-a][1,4]diazepin-5-one]",270,340,210,170,180,340,−4.94,−6.58,190,320,−4.18,−6.76,360,180,210,200,370,280,460,4.1,GI50 (MDA-MB-435; breast MDA-MB-435): 170 nM; GI50 (HCT-116; colon cancer HCT-116): 180 nM; ΔTm after incubation at 37° C. for 18 hrs [1]: 6.2 °C; GI50 (OVCAR-4): 400 nM; GI50 (SW-620): 230 nM; GI50 (SK-MEL-28): 200 nM; GI50 (SN12C): 300 nM; Log10 LC50 (Ovarian): −4.84 mol/L; Log10GI50 (Ovarian): −6.44 mol/L; GI50 (KM12): 220 nM; GI50 (OVCAR-5): 420 nM; GI50 (BT-549; [4]): 90 nM; GI50 (BT-549; breast BT-549): 90 nM; GI50 (SK-MEL-5; [5]): 160 nM; GI50 (SK-MEL-5; melanoma SK-MEL-5): 200 nM; Log10 LC50 (CNS): −5.18 mol/L; Log10GI50 (CNS): −6.51 mol/L; GI50 (SK-MEL-2): 230 nM; GI50 (786-0): 280 nM
